Where “and” joins values, the source holds several entries; their conditions need not be identical. Equal entries are not always repeated.
Assays:
CYP2C19 = target: T1, CYP2C19 (Homo sapiens, UniProt P33261); experiment: CYP450 inhibition in HLM, mephenytoin probe; format: in vitro ADME
T1 construct: pooled human liver microsomes; tissue BioIVT; host or cells: pooled human liver microsomes
Experimental: The CYP450 inhibition was determined by measuring the reaction products of known CYP450 substrates (probes). […] These probe solutions were dispensed (195 µL) into clear 96-well plates with low evaporation lids (Corning, Turin, Italy) and the plates were prewarmed to 37 °C in a thermomixer (Hamilton, Agrate Brianza, Italy). Next, 5 µL of the test compound or appropriate positive control (Table S4) were added to the wells and the plates were incubated for a further 5 min. Following this, the reactions were started by adding NADPH regenerating solution (50 µL, see previous Section 4.7) to each well. CYP450 mixtures containing phenacetin, rosiglitazone, mephenytoin, atorvastatin, and nifedipine probes were incubated for 10 min at 37 °C, whereas those with midazolam and diclofenac were incubated for 5 min at 37 °C. […]
Probe products were analyzed on an API4000 Qtrap mass spectrometer (Applied Biosystems/MDS SCIEX, Monza, Italy) coupled with an Acquity UPLC system (Waters, Milan, Italy) and a CTC-PAL auto-injector (CTC Analytics AG, Zwingen, Switzerland). […] The analytes were quantified in multiple reaction-monitoring mode. Data were processed, and the percentage control activity was calculated based on a comparison between the ratio of the sample peak area and the peak area.

ICLPa = target: T2, ICLPa (Pseudomonas aeruginosa, UniProt Q9I0K4); experiment: Isothermal titration calorimetry, ICLPa; conditions: ITC
T2 sequence (Q9I0K4 1-531): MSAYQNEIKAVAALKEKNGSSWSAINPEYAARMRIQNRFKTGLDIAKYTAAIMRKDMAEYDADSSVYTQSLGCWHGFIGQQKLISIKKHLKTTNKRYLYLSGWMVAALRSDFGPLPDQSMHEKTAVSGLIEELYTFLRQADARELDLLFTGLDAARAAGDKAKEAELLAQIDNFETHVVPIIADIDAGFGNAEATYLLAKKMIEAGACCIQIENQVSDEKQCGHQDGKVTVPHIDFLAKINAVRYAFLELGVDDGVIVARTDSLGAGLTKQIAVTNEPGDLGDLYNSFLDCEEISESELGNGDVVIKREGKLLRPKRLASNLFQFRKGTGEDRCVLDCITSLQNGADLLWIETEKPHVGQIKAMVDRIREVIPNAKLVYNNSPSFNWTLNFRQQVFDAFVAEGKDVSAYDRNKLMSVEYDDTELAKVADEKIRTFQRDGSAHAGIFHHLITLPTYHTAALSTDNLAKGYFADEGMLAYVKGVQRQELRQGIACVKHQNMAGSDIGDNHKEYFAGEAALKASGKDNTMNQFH
Experimental: Protein samples were dialyzed (2 × 1 L) in a D-tube dialyzer (Merck, Watford, UK) for 3 h in 25 mM Tris-HCl, 100 mM NaCl, and 0.1 mM TCEP (pH 7.5). […] The syringe and the cell both contained a final concentration of 0.1% DMSO. The injection parameters for MSPa were: Reference power 15 µcal/sec, initial injection of 3 µL (3.6 sec per injection) with subsequent injections of 10 µL (12 sec per injection). Injections were spaced by 150 sec with a filter period of 2 sec. The injection parameters for ICLPa were: Reference power 15 µcal/sec, initial injection of 3 µL (3.6 sec per injection) with subsequent injections of 8 µL (10 sec per injection). Injections were spaced by 170 sec with a filter period of 2 sec. Data were analyzed in NITPIC (NITPIC, Bethesda, MD, USA) [31] for baseline calculations and then fit for thermodynamic parameters using the OneSite model in Origin 7.0 software (Origin Software Solutions, Bristol, UK). Each titration was carried out in duplicate.

[1] = 25 °C, reverse titration, ICLPa

T1 sequence (P33261 whole entry): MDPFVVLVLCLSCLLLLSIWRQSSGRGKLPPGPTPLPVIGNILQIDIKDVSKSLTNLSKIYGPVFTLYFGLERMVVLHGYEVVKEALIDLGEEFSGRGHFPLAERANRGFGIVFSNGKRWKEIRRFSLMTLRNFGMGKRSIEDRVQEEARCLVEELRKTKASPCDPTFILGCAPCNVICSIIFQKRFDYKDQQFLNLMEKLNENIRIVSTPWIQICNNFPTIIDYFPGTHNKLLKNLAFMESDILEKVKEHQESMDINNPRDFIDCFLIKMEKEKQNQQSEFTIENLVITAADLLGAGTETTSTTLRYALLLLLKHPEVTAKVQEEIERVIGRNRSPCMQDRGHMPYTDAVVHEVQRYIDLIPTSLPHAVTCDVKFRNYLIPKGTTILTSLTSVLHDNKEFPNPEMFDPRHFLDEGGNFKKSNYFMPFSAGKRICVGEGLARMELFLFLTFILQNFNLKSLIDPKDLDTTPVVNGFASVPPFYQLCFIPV

Q: With `CC(C)(C)OC(=O)/N=C(\NC(=O)OC(C)(C)C)Nc1cc(Cl)ccn1` [SB002] as the compound, how does the “IC50 CYP450 2C19” value (CYP2C19) read?
A: Its value is “some evidence of interacting with the turnover of mephenytoin”.

Q: What about the IC50 (CYP2C19; read-out: IC50 CYP450 2C19) of the same compound?
A: The IC50 was 126 µM.

Q: What about the Ka (ICLPa; [1]) of the same compound?
A: The Ka was 718000 ± 149000 M.

Q: What about the Kd (ICLPa; [1]) of the same compound?
A: Its Kd is 1.43 µM.

Q: And the ΔG (ICLPa; [1])?
A: Its ΔG is −7.98 ± 3.44×10^−1 kcal/mol.

Q: What about the ΔH (ICLPa; [1]) of the same compound?
A: Its ΔH is −4.22 ± 3.44×10^−1 kcal/mol.

Q: What about the “−TΔS” value (ICLPa; [1]) of the same compound?
A: Its value is -3.76 kcal/mol.

Q: And the “n (binding sites)” value (ICLPa; per monomeric unit of ICLPa)?
A: Its value is 0.53 and 0.53 ± 3.25 × 10^−2.
